Measured values: patent US20190062305A1, “PYRIDYL OR PYRAZINYL COMPOUNDS CARRYING A METHYL-BOUND ALPHA-AMINO ACID AMIDE GROUP” (ABBVIE DEUTSCHLAND GMBH & CO. KG, priority 2015, published 2019)
Where a name gives a salt, the structure may show the parent alone. Read-outs that look alike come from different tables or passages of the source.

Assays:
[1] = Metabolic stability in human liver microsomes, unbound intrinsic clearance (Cl int/fu mic); type: in vitro ADME; details: pH 7.4, human liver microsomes 0.25 mg/mL, 0.5 μM compound, NADPH, read-out: Cl int, mic unb. (h) [l/h/kg] (unbound intrinsic clearance, human)
In short: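 Compound (0.5 µM) was incubated with human liver microsomes (0.25 mg/mL) in pH 7.4 phosphate buffer at 37 °C with 1.0 mM NADPH, sampling from 0–30 min. Depletion was followed by LC-MS/MS, and CLint was derived from first-order t1/2 per mg protein. Microsomal unbound fraction came from 4 h equilibrium dialysis at 37 °C, giving CLint/fu mic.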

5-HT2C receptor = target: T1, 5-HT2C receptor (Homo sapiens, UniProt P28335); test: Human 5-HT2C functional assay (beta-arrestin2 recruitment, U2OS_HTR2C_β-Arrestin cells); type: cell-based; details: for EC50: beta-arrestin2 recruitment, U2OS_HTR2C_β-Arrestin cells, 1.5 h incubation, read-out: EC50 5-HT2C (potency in functional assay); for Emax: relative efficacy vs response to 10 μM 5-HT or maximal 5-HT effect (100%)
T1 construct: host or cells: U2OS
T1 sequence (P28335 33-458): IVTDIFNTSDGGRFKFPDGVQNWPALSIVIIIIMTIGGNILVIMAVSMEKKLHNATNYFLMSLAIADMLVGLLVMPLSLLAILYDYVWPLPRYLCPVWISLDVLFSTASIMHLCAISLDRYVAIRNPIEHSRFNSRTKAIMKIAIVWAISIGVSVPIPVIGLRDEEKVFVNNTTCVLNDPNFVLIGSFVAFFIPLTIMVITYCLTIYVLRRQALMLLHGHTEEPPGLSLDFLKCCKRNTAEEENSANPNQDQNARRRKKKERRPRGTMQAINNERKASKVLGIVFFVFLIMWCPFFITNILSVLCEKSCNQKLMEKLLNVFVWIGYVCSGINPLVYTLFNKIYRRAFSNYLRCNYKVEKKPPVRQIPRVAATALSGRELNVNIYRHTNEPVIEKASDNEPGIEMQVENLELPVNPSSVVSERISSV
T1 sequence (P32121 whole entry partner): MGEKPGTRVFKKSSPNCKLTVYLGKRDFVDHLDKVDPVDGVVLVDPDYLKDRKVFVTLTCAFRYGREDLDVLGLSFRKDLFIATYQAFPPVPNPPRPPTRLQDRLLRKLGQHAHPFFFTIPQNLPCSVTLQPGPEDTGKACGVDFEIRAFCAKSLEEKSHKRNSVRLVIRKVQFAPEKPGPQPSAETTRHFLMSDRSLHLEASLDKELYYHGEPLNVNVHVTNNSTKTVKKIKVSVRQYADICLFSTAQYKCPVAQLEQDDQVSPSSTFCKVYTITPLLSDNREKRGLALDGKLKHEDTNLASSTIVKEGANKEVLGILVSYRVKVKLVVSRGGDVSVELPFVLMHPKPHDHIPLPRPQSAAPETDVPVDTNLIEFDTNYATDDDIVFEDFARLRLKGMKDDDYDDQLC
In short: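 U2OS cells expressing HTR2C with β-galactosidase complementation, switched to 1% serum medium 24 h post-plating, were treated next day with compound for 1.5 h; chemiluminescence read. Response expressed as % of 10 µM 5-HT or maximal 5-HT effect; EC50 from 4-parameter variable-slope fit.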

SMILES	CLint scaled at 0.5 μM [1]	EC50 (5-HT2C receptor)	Emax (5-HT2C receptor)	CLint scaled at 0.5 μM ([1]; human, liver microsomes)
COc1nc(N2CC(F)(F)C(F)(F)C(F)(F)C2)c(F)cc1CNC(=O)[C@@H]1CCCN1 [Example 182, (2S)—N-[[5-Fluoro-6-(3,3,4,4,5,5-hexafluoro-1-piperidyl)-2-methoxy-3-pyridyl]-methyl]pyrrolidine-2-carboxamide Hydrochloride]	5 to 50 L/h/kg	< 20 nM	> 70%	
COc1nc(N2CC3C(C2)C3(F)F)c(F)cc1CNC(=O)[C@@H]1CCCN1 (stereo partly drawn) [Example 183, (2S)—N-[[6-(6,6-Difluoro-3-azabicyclo[3.1.0]hexan-3-yl)-5-fluoro-2-methoxy-3-pyridyl]methyl]pyrrolidine-2-carboxamide]		20 to 200 nM	> 70%	5 to 50 L/h/kg
COc1nc(N2CCC3C(C2)C3(F)F)c(F)cc1CNC(=O)[C@@H]1CCCN1 (stereo partly drawn) [Example 184, (2S)—N-[[6-(7,7-Difluoro-4-azabicyclo[4.1.0]heptan-4-yl)-5-fluoro-2-methoxy-3-pyridyl]methyl]pyrrolidine-2-carboxamide; 2,2,2-trifluoroacetic Acid]		20 to 200 nM	> 70%	5 to 50 L/h/kg
COc1nc(NCCCc2ccccc2)c(F)cc1CNC(=O)[C@@H]1CCCN1 [Example 185, (2S)—N-[[5-Fluoro-2-methoxy-6-(3-phenylpropylamino)-3-pyridyl]methyl]-pyrrolidine-2-carboxamide; 2,2,2-trifluoroacetic acid]		20 to 200 nM	> 70%	5 to 50 L/h/kg
COc1nc(NC2CCC2C(F)(F)F)c(F)cc1CNC(=O)[C@@H]1CCCN1 (stereo partly drawn) [Example 186, (2S)—N-[[5-Fluoro-2-methoxy-6-[[2-(trifluoromethyl)cyclobutyl]amino]-3-pyridyl]-methyl]pyrrolidine-2-carboxamide]		20 to 200 nM	> 70%	< 5 L/h/kg
COc1nc(N2CCC(CC(F)(F)F)C2)c(F)cc1CNC(=O)[C@@H]1CCCN1 (stereo partly drawn) [Example 187, (2S)—N-[[5-Fluoro-2-methoxy-6-[3-(2,2,2-trifluoroethyl)pyrrolidin-1-yl]-3-pyridyl]methyl]pyrrolidine-2-carboxamide; 2,2,2-trifluoroacetic Acid]		20 to 200 nM	> 70%	5 to 50 L/h/kg
COc1nc(N2CCCC3(C2)CC3(F)F)c(F)cc1CNC(=O)[C@@H]1CCCN1 (stereo partly drawn) [Example 188, (2S)—N-[[6-(2,2-Difluoro-7-azaspiro[2.5]octan-7-yl)-5-fluoro-2-methoxy-3-pyridyl]methyl]pyrrolidine-2-carboxamide; 2,2,2-trifluoroacetic Acid]	5 to 50 L/h/kg	20 to 200 nM	> 70%	
COc1nc(CC2CCOCC2)c(F)cc1CNC(=O)[C@@H]1CCCN1 [Example 189, (2S)—N-[[5-Fluoro-2-methoxy-6-(tetrahydropyran-4-ylmethyl)-3-pyridyl]methyl]-pyrrolidine-2-carboxamide; 2,2,2-trifluoroacetic Acid]		200 to 1000 nM	50 to 70%	< 5 L/h/kg
COc1nc(N2CCC(F)(F)C(C(F)F)C2)c(F)cc1CNC(=O)[C@@H]1CCCN1 (stereo partly drawn) [Example 190, (2S)—N-[[6-[3-(Difluoromethyl)-4,4-difluoro-1-piperidyl]-5-fluoro-2-methoxy-3-pyridyl]methyl]pyrrolidine-2-carboxamide Hydrochloride]		< 20 nM	> 70%	< 5 L/h/kg
COc1nc(C(F)(F)Cc2ccccc2)c(F)cc1CN(C)C(=O)[C@@H]1CCCN1 [Example 191, (2S)—N-[[6-(1,1-Difluoro-2-phenyl-ethyl)-5-fluoro-2-methoxy-3-pyridyl]methyl]-N-methyl-pyrrolidine-2-carboxamide Hydrochloride]		200 to 1000 nM	30 to 50%	5 to 50 L/h/kg
COCCCCc1nc(OC)c(CNC(=O)[C@@H]2CCCN2)cc1F [Example 193, (2S)—N-[[5-Fluoro-2-methoxy-6-(4-methoxybutyl)-3-pyridyl]methyl]pyrrolidine-2-carboxamide]		200 to 1000 nM	> 70%	< 5 L/h/kg
COc1nc(N2CC(Cc3ccccc3)C2)c(F)cc1CNC(=O)[C@@H]1CCCN1 [Example 194, (2S)—N-[[6-(3-Benzylazetidin-1-yl)-5-fluoro-2-methoxy-3-pyridyl]methyl]-pyrrolidine-2-carboxamide]		20 to 200 nM	> 70%	50 to 500 L/h/kg
COc1nc(N2CCC(Oc3ccccc3)CC2)c(F)cc1CNC(=O)[C@@H]1CCCN1 [Example 195, (2S)—N-[[5-Fluoro-2-methoxy-6-(4-phenoxy-1-piperidyl)-3-pyridyl]methyl]-pyrrolidine-2-carboxamide; 2,2,2-trifluoroacetic Acid]		20 to 200 nM	> 70%	50 to 500 L/h/kg
